# Data: patent publication US11292807B2 (OCEANS LTD., priority 2015, dated 2022)
# Read-outs that look alike come from different tables or passages of the source.
# Legend:
# [1] = test system: CCD1079SK (fibroblast, noncancerous but proliferating); assay: CIMA assay, cell viability, CCD1079SK; conditions: CCD
# Protocol: (§1) Stock solutions of the extracts were prepared in dimethylsulfoxide (DMSO) at 10 mg/mL and stored in 200 μl aliquots at −20° C. until analysis. This preparation ensured that the DMSO delivered to cells in culture never exceeded 1%.
# (§2) Prepared extracts were assessed following chronic exposure conditions in which cells were seeded at 2×10^3 cells/well (96 well-plate) and incubated with test compounds for 72 h. Each compound was evaluated over a range of concentrations (0, 10, 25, 50 or 100 μg/ml). Cell proliferation was initially assessed using a standard colorimetric indicator of metabolic activity (CIMA) assay. In this assay, tetrazole reduction was evaluated as a measure of metabolic function that evaluates mitochondrial activity to determine the extent of cell proliferation within a culture. This assay is based on the reduction of yellow tetrazolium salt to purple formazan by mitochondrial reductases enzyme in viable cells, resulting in a color changed that confers a change in absorbance.
# [2] = CIMA assay, cell viability, CCD1079SK; conditions: human, Average cell viability, CCD
# Protocol: as §1, §2
# [3] = test system: U373 (glioblastoma-astrocytoma); assay: CIMA assay, cell viability, U373; conditions: for Fold change in viability AVG / In vitro activity against cancer cell lines, U373 AVG: U373
# [4] = test system: SKOV3 (ovarian adenocarcinoma); assay: CIMA assay, cell viability, SKOV3; conditions: for Fold change in viability AVG / In vitro activity against cancer cell lines, SKOV AVG: SKOV
# Protocol: as §1, §2
# MDA-MB [5] = conditions: MDA-MB
# MDA-MB [6] = assay: cells; conditions: Homo sapiens, read-out: Average cell viability, MDA-MB
# PC3 = assay: CIMA assay, cell viability, PC3; conditions: for Fold change in viability AVG / In vitro activity against cancer cell lines, PC3 AVG: PC3
# A549 (lung carcinoma) = assay: CIMA assay (colorimetric indicator of metabolic activity), cell viability, A549; conditions: for Fold change in viability AVG / In vitro activity against cancer cell lines, A549 AVG: A549
# [7] = test system: THP-1 (acute monocytic leukemia); assay: CIMA assay, cell viability, THP-1; conditions: for Fold change in viability AVG / In vitro activity against cancer cell lines, THP-1 AVG: THP-1
smiles,measurement,setting,value
"CCCCCCCCCCCCCCCC(=O)OCC(COC1OC(CO)C(O)C(O)C1O)OC(=O)CCCCCCCCCCCCC (centres unmarked) [Compound 16, MGDG C16:0/C14:0]",Fold change in viability AVG,[1]; 1 ug/mL,1.16
same,Fold change in viability AVG,[1]; 10 ug/mL,1.08
same,Fold change in viability AVG,[1]; 50 ug/mL,0.48
same,Fold change in viability AVG,[1]; 100 ug/mL,0.21
same,"viability at 72 h, 1 ug/mL","[2]; CCD1079SK fibroblast cells (noncancerous, proliferating), 1 ug/mL",106%
same,"viability at 72 h, 10 ug/mL","[2]; CCD1079SK fibroblast cells (noncancerous, proliferating), 10 ug/mL",98%
same,"viability at 72 h, 50 ug/mL","[2]; CCD1079SK fibroblasts (noncancerous, proliferating), 50 ug/mL",44%
same,"viability at 72 h, 100 ug/mL","[2]; CCD1079SK fibroblasts (noncancerous, proliferating), 100 ug/mL",19%
same,viability at 1 µg/mL,"[3]; Homo sapiens, U373 MG, read-out: Average cell viability, U373, 1 ug/mL",108%
same,viability at 10 µg/mL,"[3]; Homo sapiens, U373 MG, read-out: Average cell viability, U373, 10 ug/mL",95%
same,viability at 50 µg/mL,"[3]; Homo sapiens, U373 MG, read-out: Average cell viability, U373, 50 ug/mL",48%
same,viability at 100 µg/mL,"[3]; Homo sapiens, U373 MG, read-out: Average cell viability, U373, 100 ug/mL",9%
same,Fold change in viability AVG,[3]; 1 ug/mL,1.09
same,"In vitro activity against cancer cell lines, U373 AVG",[3]; 1 ug/mL,1.09
same,Fold change in viability AVG,[3]; 10 ug/mL,0.97
same,"In vitro activity against cancer cell lines, U373 AVG",[3]; 10 ug/mL,0.97
same,Fold change in viability AVG,[3]; 50 ug/mL,0.49
same,"In vitro activity against cancer cell lines, U373 AVG",[3]; 50 ug/mL,0.49
same,Fold change in viability AVG,[3]; 100 ug/mL,0.09
same,"In vitro activity against cancer cell lines, U373 AVG",[3]; 100 ug/mL,0.09
same,viability at 1 µg/mL,"[4]; Homo sapiens, SK-OV-3, read-out: Average cell viability, SKOV, 1 ug/mL",102%
same,viability at 10 µg/mL,"[4]; Homo sapiens, SK-OV-3, read-out: Average cell viability, SKOV, 10 ug/mL",95%
same,viability at 50 µg/mL,"[4]; Homo sapiens, SK-OV-3, read-out: Average cell viability, SKOV, 50 ug/mL",83%
same,viability at 100 µg/mL,"[4]; Homo sapiens, SK-OV-3, read-out: Average cell viability, SKOV, 100 ug/mL",68%
same,Fold change in viability AVG,[4]; 1 ug/mL,1.09
same,"In vitro activity against cancer cell lines, SKOV AVG",[4]; 1 ug/mL,1.09
same,Fold change in viability AVG,[4]; 10 ug/mL,1.02
same,"In vitro activity against cancer cell lines, SKOV AVG",[4]; 10 ug/mL,1.02
same,Fold change in viability AVG,[4]; 50 ug/mL,0.90
same,"In vitro activity against cancer cell lines, SKOV AVG",[4]; 50 ug/mL,0.90
same,Fold change in viability AVG,[4]; 100 ug/mL,0.74
same,"In vitro activity against cancer cell lines, SKOV AVG",[4]; 100 ug/mL,0.74
same,Fold change in viability AVG,MDA-MB [5]; 1 ug/mL,1.08
same,"In vitro activity against cancer cell lines, MDA-MB AVG",MDA-MB [5]; 1 ug/mL,1.08
same,Fold change in viability AVG,MDA-MB [5]; 10 ug/mL,1.09
same,"In vitro activity against cancer cell lines, MDA-MB AVG",MDA-MB [5]; 10 ug/mL,1.09
same,Fold change in viability AVG,MDA-MB [5]; 50 ug/mL,0.76
same,"In vitro activity against cancer cell lines, MDA-MB AVG",MDA-MB [5]; 50 ug/mL,0.76
same,Fold change in viability AVG,MDA-MB [5]; 100 ug/mL,0.21
same,"In vitro activity against cancer cell lines, MDA-MB AVG",MDA-MB [5]; 100 ug/mL,0.21
same,viability at 1 µg/mL,MDA-MB [6]; 1 ug/mL,99%
same,viability at 10 µg/mL,MDA-MB [6]; 10 ug/mL,101%
same,viability at 50 µg/mL,MDA-MB [6]; 50 ug/mL,70%
same,viability at 100 µg/mL,MDA-MB [6]; 100 ug/mL,20%
same,viability at 1 µg/mL,"PC3; Homo sapiens, PC-3, read-out: Average cell viability, PC3, 1 ug/mL",100%
same,viability at 10 µg/mL,"PC3; Homo sapiens, PC-3, read-out: Average cell viability, PC3, 10 ug/mL",96%
same,viability at 50 µg/mL,"PC3; Homo sapiens, PC-3, read-out: Average cell viability, PC3, 50 ug/mL",72%
same,viability at 100 µg/mL,"PC3; Homo sapiens, PC-3, read-out: Average cell viability, PC3, 100 ug/mL",9%
same,Fold change in viability AVG,PC3; 1 ug/mL,1.04
same,"In vitro activity against cancer cell lines, PC3 AVG",PC3; 1 ug/mL,1.04
same,Fold change in viability AVG,PC3; 10 ug/mL,0.99
same,"In vitro activity against cancer cell lines, PC3 AVG",PC3; 10 ug/mL,0.99
same,Fold change in viability AVG,PC3; 50 ug/mL,0.75
same,"In vitro activity against cancer cell lines, PC3 AVG",PC3; 50 ug/mL,0.75
same,Fold change in viability AVG,PC3; 100 ug/mL,0.10
same,"In vitro activity against cancer cell lines, PC3 AVG",PC3; 100 ug/mL,0.10
same,Fold change in viability AVG,A549 (lung carcinoma); 1 ug/mL,1.13
same,"In vitro activity against cancer cell lines, A549 AVG",A549 (lung carcinoma); 1 ug/mL,1.13
same,Fold change in viability AVG,A549 (lung carcinoma); 10 ug/mL,1.16
same,"In vitro activity against cancer cell lines, A549 AVG",A549 (lung carcinoma); 10 ug/mL,1.16
same,Fold change in viability AVG,A549 (lung carcinoma); 50 ug/mL,0.99
same,"In vitro activity against cancer cell lines, A549 AVG",A549 (lung carcinoma); 50 ug/mL,0.99
same,Fold change in viability AVG,A549 (lung carcinoma); 100 ug/mL,0.60
same,"In vitro activity against cancer cell lines, A549 AVG",A549 (lung carcinoma); 100 ug/mL,0.60
same,viability at 1 µg/mL,"A549 (lung carcinoma); Homo sapiens, A549, read-out: Average cell viability, A549, 1 ug/mL",97%
same,viability at 10 µg/mL,"A549 (lung carcinoma); Homo sapiens, A549, read-out: Average cell viability, A549, 10 ug/mL",99%
same,viability at 50 µg/mL,"A549 (lung carcinoma); Homo sapiens, A549, read-out: Average cell viability, A549, 50 ug/mL",85%
same,viability at 100 µg/mL,"A549 (lung carcinoma); Homo sapiens, A549, read-out: Average cell viability, A549, 100 ug/mL",52%
same,viability at 1 µg/mL,"[7]; Homo sapiens, THP-1, read-out: Average cell viability, THP-1, 1 ug/mL",101%
same,viability at 10 µg/mL,"[7]; Homo sapiens, THP-1, read-out: Average cell viability, THP-1, 10 ug/mL",101%
same,viability at 50 µg/mL,"[7]; Homo sapiens, THP-1, read-out: Average cell viability, THP-1, 50 ug/mL",86%
same,viability at 100 µg/mL,"[7]; Homo sapiens, THP-1, read-out: Average cell viability, THP-1, 100 ug/mL",46%
same,Fold change in viability AVG,[7]; 1 ug/mL,1.14
same,"In vitro activity against cancer cell lines, THP-1 AVG",[7]; 1 ug/mL,1.14
same,Fold change in viability AVG,[7]; 10 ug/mL,1.15
same,"In vitro activity against cancer cell lines, THP-1 AVG",[7]; 10 ug/mL,1.15
same,Fold change in viability AVG,[7]; 50 ug/mL,0.75
same,"In vitro activity against cancer cell lines, THP-1 AVG",[7]; 50 ug/mL,0.75
same,Fold change in viability AVG,[7]; 100 ug/mL,0.52
same,"In vitro activity against cancer cell lines, THP-1 AVG",[7]; 100 ug/mL,0.52
